Peptide text beside a SMILES is read from it.
Key:
Furin [1] = target: T1, Furin (Homo sapiens, UniProt P09958); test: Inhibition of Tev-FLAG-His-tagged furin (108 to 574 residues) (unknown origin) using FAM-QRVRRAVGIDK-TAMRA as substrate and measured after 2 hrs
Furin [2] = target: T1, Furin; test: Inhibition of furin in human U2OS cells measured after 24 hrs by fluorescence assay; assay type: cell-based
Mus musculus [3] = test: Antifibrotic activity against bleomycin-induced mouse lung fibrosis model assessed as inhibition of TGF-beta secretion in lung at 10 mg/kg, po administered once daily; assay type: functional
Mus musculus [4] = test: Antifibrotic activity against bleomycin-induced mouse lung fibrosis model assessed as inhibition of hydroxyproline content in lung at 10 mg/kg, po administered once daily; assay type: functional
Furin [5] = target: T1, Furin; test: Inhibition of human furin expressed in HEK293 cells using pGlu-Arg-Thr-LysArg-AMC as substrate and measured by fluorescence based assay
Mus musculus [6] = test: Antifibrotic activity against bleomycin-induced mouse lung fibrosis model assessed as inhibition of TGF-beta secretion in lung at 10 mg/kg, ip administered twice daily; assay type: functional
Mus musculus [7] = test: Antifibrotic activity against bleomycin-induced mouse lung fibrosis model assessed as inhibition of hydroxyproline content in lung at 10 mg/kg, ip administered twice daily; assay type: functional
Furin [8] = target: T1, Furin; test: Inhibition of furin (unknown origin)
[9] = Dissociation constant, pKa of the compound; assay type: physicochemical
[10] = Inhibition of human papilloma virus-11 replication in HEK293 cells measured by transient DNA replication assay; assay type: functional, cell-based; conditions: human papillomavirus 11, HEK293
Furin [11] = target: T1, Furin; test: Inhibition of human furin using Pyr-RTKR-AMC as substrate preincubated for 30 mins followed by substrate addition and measured by fluorescence based assay
Mus musculus [12] = test: Antifibrotic activity against bleomycin-induced mouse lung fibrosis model assessed as inhibition of TGF-beta secretion in lung at 10 mg/kg, ip administered once daily; assay type: functional
Mus musculus [13] = test: Antifibrotic activity against bleomycin-induced mouse lung fibrosis model assessed as inhibition of hydroxyproline content in lung at 10 mg/kg, ip administered once daily; assay type: functional
[14] = Inhibition of porcine trypsin using Mes-DArg-Gly-Arg-AMC as substrate and measured by fluorescence assay; parameters: species or system Sus scrofa
[15] = target: T2, Proprotein convertase subtilisin/kexin type 6 (Homo sapiens, UniProt P29122); test: Inhibition of PACE4 (unknown origin)
T2 sequence (P29122 whole entry): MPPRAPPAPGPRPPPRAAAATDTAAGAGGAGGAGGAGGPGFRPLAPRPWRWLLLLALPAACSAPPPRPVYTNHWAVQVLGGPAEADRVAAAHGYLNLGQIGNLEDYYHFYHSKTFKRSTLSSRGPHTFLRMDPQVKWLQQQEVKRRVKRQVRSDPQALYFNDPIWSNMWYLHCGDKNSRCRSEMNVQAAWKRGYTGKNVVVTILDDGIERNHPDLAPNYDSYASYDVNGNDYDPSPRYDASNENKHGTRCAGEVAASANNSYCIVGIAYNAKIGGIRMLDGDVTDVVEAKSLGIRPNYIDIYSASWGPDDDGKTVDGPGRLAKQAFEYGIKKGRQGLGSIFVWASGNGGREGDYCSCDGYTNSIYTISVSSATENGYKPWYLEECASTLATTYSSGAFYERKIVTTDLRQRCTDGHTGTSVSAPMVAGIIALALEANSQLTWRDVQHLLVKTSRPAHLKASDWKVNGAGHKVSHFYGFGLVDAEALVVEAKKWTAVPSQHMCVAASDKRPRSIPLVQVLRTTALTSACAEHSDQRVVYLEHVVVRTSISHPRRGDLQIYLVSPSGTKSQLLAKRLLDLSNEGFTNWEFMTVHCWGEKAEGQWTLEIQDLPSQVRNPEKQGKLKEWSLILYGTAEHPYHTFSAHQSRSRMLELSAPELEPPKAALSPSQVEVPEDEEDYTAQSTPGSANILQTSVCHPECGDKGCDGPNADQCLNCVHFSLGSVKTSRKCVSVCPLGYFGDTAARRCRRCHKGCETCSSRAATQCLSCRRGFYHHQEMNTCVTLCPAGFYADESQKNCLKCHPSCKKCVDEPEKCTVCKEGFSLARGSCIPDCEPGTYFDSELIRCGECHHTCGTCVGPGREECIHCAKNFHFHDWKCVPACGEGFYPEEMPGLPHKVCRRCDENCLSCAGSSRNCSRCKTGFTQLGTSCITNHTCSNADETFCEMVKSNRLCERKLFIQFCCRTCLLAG

Furin [16] = target: T1, Furin; test: Inhibition of soluble human furin using boc-RVRR-MCA as substrate incubated for 45 mins and measured by fluorescence assay
Furin [17] = target: T1, Furin; test: Inhibition of recombinant human furin using Phac-Arg-Val-Arg-Arg-AMC as substrate incubated for 30 mins and measured by microplate reader method
Coagulation factor X = Coagulation factor X (Homo sapiens, UniProt P00742); test: Inhibition of human fXa using Mes-DArg-Pro-Arg-AMC as substrate and measured by fluorescence assay
Coagulation factor X, sequence (P00742 41-179 limits assumed): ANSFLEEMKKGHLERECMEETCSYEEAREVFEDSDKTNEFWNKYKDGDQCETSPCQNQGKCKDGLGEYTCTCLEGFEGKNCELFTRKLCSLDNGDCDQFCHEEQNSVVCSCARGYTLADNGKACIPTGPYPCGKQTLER
Coagulation factor X, sequence (P00742 235-488 limits assumed): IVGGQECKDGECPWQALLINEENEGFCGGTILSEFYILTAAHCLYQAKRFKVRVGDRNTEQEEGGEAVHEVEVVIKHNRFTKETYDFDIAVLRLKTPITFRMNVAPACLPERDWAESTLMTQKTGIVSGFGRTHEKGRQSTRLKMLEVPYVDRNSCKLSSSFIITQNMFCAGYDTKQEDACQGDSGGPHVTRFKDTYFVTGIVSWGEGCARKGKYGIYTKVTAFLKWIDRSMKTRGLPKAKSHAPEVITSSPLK

Prothrombin = Prothrombin (Bos taurus, UniProt P00735); test: Inhibition of bovine thrombin using Tos-Gly-Pro-Arg-AMC as substrate and measured by fluorescence assay
Plasminogen = Plasminogen (Homo sapiens, UniProt P00747); test: Inhibition of human plasmin using Mes-DArg-Phe-Arg-AMC as substrate and measured by fluorescence assay
Plasminogen, sequence (P00747 97-580 limits assumed): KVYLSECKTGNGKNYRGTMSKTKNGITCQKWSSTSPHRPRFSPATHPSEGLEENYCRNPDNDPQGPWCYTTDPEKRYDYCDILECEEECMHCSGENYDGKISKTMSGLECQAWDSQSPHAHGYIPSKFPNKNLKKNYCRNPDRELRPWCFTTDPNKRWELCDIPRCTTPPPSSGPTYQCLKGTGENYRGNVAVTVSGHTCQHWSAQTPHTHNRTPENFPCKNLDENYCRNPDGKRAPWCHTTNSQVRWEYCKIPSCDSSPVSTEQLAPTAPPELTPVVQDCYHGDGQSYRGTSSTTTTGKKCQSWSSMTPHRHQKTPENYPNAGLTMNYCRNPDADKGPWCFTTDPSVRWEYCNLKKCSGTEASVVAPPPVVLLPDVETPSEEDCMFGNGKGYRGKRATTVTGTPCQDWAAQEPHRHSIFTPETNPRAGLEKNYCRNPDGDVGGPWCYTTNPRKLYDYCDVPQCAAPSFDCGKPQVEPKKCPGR
Plasminogen, sequence (P00747 581-810 limits assumed): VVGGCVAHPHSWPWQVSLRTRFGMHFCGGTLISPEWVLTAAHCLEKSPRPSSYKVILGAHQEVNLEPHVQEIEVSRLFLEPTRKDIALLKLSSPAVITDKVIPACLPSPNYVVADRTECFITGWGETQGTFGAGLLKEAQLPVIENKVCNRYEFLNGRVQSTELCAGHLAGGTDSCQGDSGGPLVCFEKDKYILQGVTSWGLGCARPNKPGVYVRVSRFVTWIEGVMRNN

Furin [18] = target: T1, Furin; test: Inhibition of recombinant human furin protease
[19] = Stability in mouse plasma assessed as compound remaining measured after 24 hrs; assay type: ADME, cell-free; conditions: read-out: Stability
[20] = Stability in mouse plasma assessed as half-life; assay type: ADME, cell-free
Vero = test: Protective activity against Escherichia coli O157:H7 Shiga toxin-induced cytotoxicity in monkey Vero cells measured by LDH assay; assay type: functional, cell-based; conditions: Chlorocebus sabaeus

T1 sequence (P09958 whole entry, the tested form may be a part): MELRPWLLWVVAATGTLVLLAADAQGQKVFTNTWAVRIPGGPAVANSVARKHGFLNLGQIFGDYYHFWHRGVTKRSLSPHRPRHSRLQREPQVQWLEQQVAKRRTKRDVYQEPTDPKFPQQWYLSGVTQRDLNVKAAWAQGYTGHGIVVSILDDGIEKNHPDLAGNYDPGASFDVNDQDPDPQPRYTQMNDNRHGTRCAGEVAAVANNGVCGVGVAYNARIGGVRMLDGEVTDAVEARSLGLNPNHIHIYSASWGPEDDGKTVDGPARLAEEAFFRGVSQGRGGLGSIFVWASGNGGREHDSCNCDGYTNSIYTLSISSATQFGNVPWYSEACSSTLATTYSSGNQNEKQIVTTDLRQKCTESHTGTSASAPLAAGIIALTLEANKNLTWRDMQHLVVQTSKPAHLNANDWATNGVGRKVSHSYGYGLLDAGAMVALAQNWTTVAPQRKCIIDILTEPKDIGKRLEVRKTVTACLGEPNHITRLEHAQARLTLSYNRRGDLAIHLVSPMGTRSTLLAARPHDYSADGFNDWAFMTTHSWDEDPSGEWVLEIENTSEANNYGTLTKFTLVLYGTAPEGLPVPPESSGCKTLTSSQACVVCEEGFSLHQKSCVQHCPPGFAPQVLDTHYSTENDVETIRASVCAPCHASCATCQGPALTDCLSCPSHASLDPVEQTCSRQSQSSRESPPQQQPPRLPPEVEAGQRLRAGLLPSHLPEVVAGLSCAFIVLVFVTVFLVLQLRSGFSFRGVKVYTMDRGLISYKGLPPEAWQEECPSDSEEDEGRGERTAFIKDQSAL

## CC(CC1CCN(Cc2cc(Oc3cnc(N4CCN(C)CC4)nc3)nc(-c3cc(Cl)cc(Cl)c3)c2)CC1)C(=O)O (stereo unspecified)
Furin [1]
  IC50: 0.000794 µM
Furin [2]
  pXC50: 8
Mus musculus [3]
  inhibition in vivo at 10 mg/kg: 81%
Mus musculus [4]
  inhibition in vivo at 10 mg/kg: 54%

## CC(C)(C)[C@H](NC(=O)[C@H](CCCNC(=N)N)NC(=O)Cc1ccccc1)C(=O)N[C@@H](CCCNC(=N)N)C(=O)NCc1ccc(C(=N)N)cc1
Furin [5]
  Ki: 0.17 nM

## CC(=O)NCC1CCN(Cc2cc(Oc3ccc(N4CCN(CCC(=O)O)CC4)nc3)nc(-c3cc(Cl)cc(Cl)c3)c2)CC1
Furin [2]
  pXC50: 7.6
Mus musculus [6]
  inhibition in vivo at 10 mg/kg: 69%
Mus musculus [7]
  inhibition in vivo at 10 mg/kg: 67%

## CC(C)(C)[C@H](NC(=O)[C@H](CCCNC(=N)N)NC(=O)Cc1ccc(CNC(=N)N)cc1)C(=O)N[C@@H](CCCNC(=N)N)C(=O)NCc1ccc(C(=N)N)c(F)c1
Furin [8]
  IC50: 0.00056 µM
  Ki: 0.0223 nM
[9]
  pKa: 9.46

## CC(C)[C@H](NC(=O)[C@H](CCCNC(=N)N)NC(=O)Cc1cccc(CNC(=N)N)c1)C(=O)N[C@@H](CCCNC(=N)N)C(=O)NCc1ccc(C(=N)N)cc1
Furin [5]
  Ki: 0.016 nM

## CSc1oc(-c2ccc(Cl)cc2Cl)nc1[P+](c1ccccc1)(c1ccccc1)c1ccccc1
Furin [8]
  Ki: 1570 nM
[10]
  IC50: 1.7 µM

## CC(=O)NCC1CCN(Cc2cc(Oc3cnc(N4CCN(CCC(=O)O)CC4)nc3)nc(-c3cc(Cl)cc(Cl)c3)c2)CC1
Furin [2]
  pXC50: 8
Mus musculus [6]
  inhibition in vivo at 10 mg/kg: 86%
Mus musculus [7]
  inhibition in vivo at 10 mg/kg: 60%

## CC(=O)N[C@@H](CCCNC(=N)N)C(=O)N[C@H](C(=O)N[C@@H](Cc1ccc(N=C(N)N)cc1)C(=O)NCc1ccc(/C(N)=N/O)cc1)C(C)C
Furin [11]
  Ki: 1.2 µM

## CC(=O)N[C@@H](CCCNC(=N)N)C(=O)N[C@H](C(=O)N[C@@H](Cc1ccc(N=C(N)N)cc1)C(=O)NCc1ccc(C(=N)N)c(F)c1)C(C)C
Furin [11]
  Ki: 0.0037 µM

## CC(=O)NCC1CCN(Cc2cc(Oc3ccc(N4CCN(CC(=O)O)CC4)nc3)nc(-c3cc(Cl)cc(Cl)c3)c2)CC1
Furin [2]
  pXC50: 6.9
Mus musculus [6]
  inhibition in vivo at 10 mg/kg: 43%
Mus musculus [7]
  inhibition in vivo at 10 mg/kg: 16%

## CNC(=O)NCC1CCN(Cc2cc(Oc3ccc(N4CCN(CCC(=O)O)CC4)nc3)nc(-c3cc(Cl)cc(Cl)c3)c2)CC1
Furin [2]
  pXC50: 7.6
Mus musculus [12]
  inhibition in vivo at 10 mg/kg: 67%
Mus musculus [13]
  inhibition in vivo at 10 mg/kg: 39%

## CC(C)(C)[C@H](NC(=O)[C@H](CCCNC(=N)N)NC(=O)Cc1ccc(CNC(=N)N)cc1)C(=O)N[C@@H](CCCNC(=N)N)C(=O)NCc1ccc(N)nc1
Furin [8]
  IC50: 0.00298 µM
  Ki: 0.8 nM
[9]
  pKa: 6.5

## CC(=O)NCC1CCN(Cc2cc(Oc3ccc(N4CCN(CCO)CC4)nc3)nc(-c3cc(Cl)cc(Cl)c3)c2)CC1
Furin [2]
  pXC50: 8.5
Mus musculus [12]
  inhibition in vivo at 10 mg/kg: 60%
Mus musculus [13]
  inhibition in vivo at 10 mg/kg: 56%

## CC(C)[C@H](NS(=O)(=O)Cc1ccc(C(=N)N)cc1)C(=O)N[C@@H](CCCNC(=N)N)C(=O)NCc1ccc(C(=N)N)cc1
Furin [11]
  Ki: 0.3 µM

## CC(=O)N[C@@H](CCCNC(=N)N)C(=O)N[C@H](C(=O)N[C@@H](Cc1ccc(N=C(N)N)cc1)C(=O)NCc1ccc(C(=N)N)cc1)C(C)C
Furin [11]
  Ki: 0.007 µM

## CC(C)(C)[C@H](NC(=O)[C@H](CCCNC(=N)N)NC(=O)Cc1ccc(CNC(=N)N)cc1)C(=O)N[C@@H](CCCNC(=N)N)C(=O)NCc1ccc(C(=N)N)cc1
[14]
  Ki: 0.052 µM

## CC(=O)N[C@@H](CC(C)C)C(=O)N[C@@H](CC(C)C)C(=O)N[C@@H](CC(C)C)C(=O)N[C@@H](CC(C)C)C(=O)N[C@@H](CCCNC(=N)N)C(=O)N[C@H](C(=O)N[C@@H](CCCCN)C(=O)N[C@@H](CCCNC(=N)N)C(N)=O)C(C)C (Ac-LLLLRVKR-NH2)
Furin [8]
  IC50: 0.02 µM
[15]
  IC50: 0.03 µM

## CC(C)(C)[C@H](NC(=O)[C@H](CCCNC(=N)N)NC(=O)Cc1ccc(CNC(=N)N)cc1)C(=O)N[C@@H](CCCNC(=N)N)C(=O)NCc1ccc(CN)cc1
Furin [8]
  IC50: 0.00953 µM
  Ki: 2.52 nM
[9]
  pKa: 9.28

## N=C(N)N/N=C/c1ccccc1OCc1ccc(Cl)cc1
Furin [16]
  Ki: 25.3 µM

## CC(C)(C)[C@H](NC(=O)[C@H](CCCONC(=N)N)NC(=O)Cc1ccc(CNC(=N)N)cc1)C(=O)N[C@@H](CCCONC(=N)N)C(=O)NCc1ccc(C(=N)N)cc1
Furin [17]
  Ki: 0.0101 nM
[14]
  Ki: 0.69 µM
Coagulation factor X
  Ki: > 3 µM
Prothrombin
  Ki: > 3 µM
Plasminogen
  Ki: > 3 µM

## CC(=O)N[C@@H](CCCNC(=N)N)C(=O)N[C@@H](C)C(=O)N[C@@H](CCCNC(=N)N)C(=O)N[C@@H](CCCNC(=N)N)C(=O)N[C@@H](CCCNC(=N)N)C(=O)N[C@@H](CCCCN)C(=O)N[C@@H](CCCCN)C(=O)N[C@@H](CCCNC(=N)N)C(=O)N[C@H](C(N)=O)[C@@H](C)O
Furin [8]
  Ki: 19 nM
Furin [18]
  Ki: 0.019 µM
[19]
  remaining at 24 h: 5%
[20]
  half-life: 1.7 h
Vero
  IC50: > 1000 µM

## CC(C)[C@H](NC(=O)[C@H](CCCNC(=N)N)NC(=O)Cc1ccc(CNC(=N)N)cc1)C(=O)N[C@@H](CCCNC(=N)N)C(=O)NCc1ccc(C(=N)N)cc1
Furin [5]
  Ki: 0.0076 nM

— ChEMBL document CHEMBL5150003, “Why All the Fury over Furin?” (J Med Chem, 2022)
